Each structure is given as a SMILES string.

The source of these data is ChEMBL document CHEMBL5136998, “Chasing a Breath of Fresh Air in Cystic Fibrosis (CF): Therapeutic Potential of Selective HDAC6 Inhibitors to Tackle Multiple Pathways in CF Pathophysiology” (J Med Chem, 2022).

In assay [1] the target is T1, Histone deacetylase 1 (Homo sapiens, UniProt Q13547). The assay is described as follows: Inhibition of human recombinant HDAC1 using fluorogenic substrate.
The nature of assay [2]: Inhibition of human recombinant HDAC3/NcoR2 using RHKKAc as substrate.
Assay [3] deals with T1, Histone deacetylase 1. Kind of assay: Inhibition of HDAC1 (unknown origin).
Assay [4] deals with T2, Histone deacetylase 2 (Homo sapiens, UniProt Q92769).
The target of a further assay is T3, Histone deacetylase 7 (Homo sapiens, UniProt Q8WUI4).
T3 sequence (Q8WUI4 whole entry): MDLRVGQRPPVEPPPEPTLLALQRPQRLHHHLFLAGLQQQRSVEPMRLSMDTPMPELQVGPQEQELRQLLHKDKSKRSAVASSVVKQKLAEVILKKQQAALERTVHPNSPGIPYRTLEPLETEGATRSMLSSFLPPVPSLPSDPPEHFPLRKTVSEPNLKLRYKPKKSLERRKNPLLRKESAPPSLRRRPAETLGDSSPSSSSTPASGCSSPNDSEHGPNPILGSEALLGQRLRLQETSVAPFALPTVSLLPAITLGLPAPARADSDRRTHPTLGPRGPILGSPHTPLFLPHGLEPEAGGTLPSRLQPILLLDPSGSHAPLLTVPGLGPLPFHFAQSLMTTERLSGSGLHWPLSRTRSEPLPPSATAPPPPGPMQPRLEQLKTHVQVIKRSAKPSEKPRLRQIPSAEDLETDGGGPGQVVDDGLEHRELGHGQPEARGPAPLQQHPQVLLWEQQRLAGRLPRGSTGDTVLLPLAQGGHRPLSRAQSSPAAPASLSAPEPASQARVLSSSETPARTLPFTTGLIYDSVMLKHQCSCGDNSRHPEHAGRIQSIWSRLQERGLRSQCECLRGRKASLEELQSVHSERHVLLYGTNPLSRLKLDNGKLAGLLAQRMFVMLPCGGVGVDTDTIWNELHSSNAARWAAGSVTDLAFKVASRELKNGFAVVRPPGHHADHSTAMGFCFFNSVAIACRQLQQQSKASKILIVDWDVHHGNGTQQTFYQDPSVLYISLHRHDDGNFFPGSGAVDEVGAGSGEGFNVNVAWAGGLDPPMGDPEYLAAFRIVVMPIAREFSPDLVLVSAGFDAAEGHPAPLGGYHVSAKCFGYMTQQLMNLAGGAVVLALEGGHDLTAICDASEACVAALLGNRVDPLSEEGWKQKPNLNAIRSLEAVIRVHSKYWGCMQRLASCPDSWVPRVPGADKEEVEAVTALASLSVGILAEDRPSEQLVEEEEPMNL
The assay is described as follows: Inhibition of HDAC7 (unknown origin).

The target in assay [5] is T4, Protein deacetylase HDAC6 (Homo sapiens, UniProt Q9UBN7).
T4 sequence (Q9UBN7 whole entry): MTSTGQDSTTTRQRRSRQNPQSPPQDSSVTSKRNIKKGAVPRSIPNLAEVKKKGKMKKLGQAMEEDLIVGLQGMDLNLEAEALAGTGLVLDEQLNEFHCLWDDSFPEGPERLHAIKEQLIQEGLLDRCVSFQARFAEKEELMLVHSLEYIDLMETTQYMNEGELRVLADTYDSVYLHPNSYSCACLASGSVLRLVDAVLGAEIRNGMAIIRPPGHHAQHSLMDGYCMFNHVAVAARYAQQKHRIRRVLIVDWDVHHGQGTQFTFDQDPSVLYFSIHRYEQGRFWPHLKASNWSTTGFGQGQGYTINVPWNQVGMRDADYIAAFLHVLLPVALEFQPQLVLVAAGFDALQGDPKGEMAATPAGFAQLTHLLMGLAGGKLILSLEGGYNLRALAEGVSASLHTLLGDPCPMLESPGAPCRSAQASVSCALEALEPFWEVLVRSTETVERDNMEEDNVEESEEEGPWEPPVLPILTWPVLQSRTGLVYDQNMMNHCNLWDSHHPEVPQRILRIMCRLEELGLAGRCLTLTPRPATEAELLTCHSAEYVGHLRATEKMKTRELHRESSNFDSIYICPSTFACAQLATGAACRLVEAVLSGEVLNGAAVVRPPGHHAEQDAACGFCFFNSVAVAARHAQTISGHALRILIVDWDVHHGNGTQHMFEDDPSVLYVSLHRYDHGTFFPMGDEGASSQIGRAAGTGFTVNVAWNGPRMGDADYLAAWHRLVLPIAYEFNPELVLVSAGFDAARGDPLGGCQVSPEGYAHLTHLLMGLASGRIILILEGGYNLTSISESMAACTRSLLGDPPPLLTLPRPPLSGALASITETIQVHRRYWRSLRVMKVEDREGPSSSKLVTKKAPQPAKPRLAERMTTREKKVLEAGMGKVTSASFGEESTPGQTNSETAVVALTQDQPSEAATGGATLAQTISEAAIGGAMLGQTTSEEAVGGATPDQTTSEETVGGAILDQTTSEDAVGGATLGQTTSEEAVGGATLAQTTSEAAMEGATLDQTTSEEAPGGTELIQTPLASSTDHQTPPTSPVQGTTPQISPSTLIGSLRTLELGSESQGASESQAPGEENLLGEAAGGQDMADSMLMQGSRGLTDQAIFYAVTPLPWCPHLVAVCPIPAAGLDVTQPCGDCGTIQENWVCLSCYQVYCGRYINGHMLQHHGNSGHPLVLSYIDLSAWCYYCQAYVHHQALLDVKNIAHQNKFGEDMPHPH
Kind of assay: Inhibition of HDAC6 (unknown origin).

The target of a further assay is Histone deacetylase 3 (Homo sapiens, UniProt O15379). The assay is described as follows: Inhibition of HDAC3 (unknown origin).
In another assay the target is T5, Histone deacetylase 8 (Homo sapiens, UniProt Q9BY41).
T5 sequence (Q9BY41 whole entry): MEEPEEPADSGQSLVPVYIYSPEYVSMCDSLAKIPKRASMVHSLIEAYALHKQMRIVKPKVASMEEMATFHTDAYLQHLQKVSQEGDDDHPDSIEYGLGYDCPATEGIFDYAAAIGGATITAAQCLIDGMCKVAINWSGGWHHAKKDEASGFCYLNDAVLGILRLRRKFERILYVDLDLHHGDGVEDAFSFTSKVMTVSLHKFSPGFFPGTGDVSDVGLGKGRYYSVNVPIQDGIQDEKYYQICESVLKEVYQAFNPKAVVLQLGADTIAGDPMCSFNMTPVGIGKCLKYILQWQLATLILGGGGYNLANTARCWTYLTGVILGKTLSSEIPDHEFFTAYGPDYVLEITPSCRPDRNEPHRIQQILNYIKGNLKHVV
The assay is described as follows: Inhibition of HDAC8 (unknown origin).

Assay [6] deals with T6, Protein deacetylase HDAC6 (Homo sapiens) (UniProt Q9UBN7).
T6 sequence (whole entry): T4 sequence (Q9UBN7 whole entry)
Kind of assay: Inhibition of HDAC6 derived from human HeLa cell nuclear extract at 100 uM incubated for 2 hrs relative to control. The class given is cell-free.

Assay [7] deals with T1, Histone deacetylase 1. The assay is described as follows: Inhibition of HDAC1 derived from human HeLa cell nuclear extract at 100 uM incubated for 2 hrs relative to control. Type of assay: cell-free.
The target of assay [8] is T2, Histone deacetylase 2. The assay is described as follows: Inhibition of human HDAC2 at 100 uM relative to control.
The target in assay [9] is Histone deacetylase 4 (Homo sapiens) (UniProt P56524). Kind of assay: Inhibition of human HDAC4 at 100 uM relative to control.
Sequence of Histone deacetylase 4 (Homo sapiens) (P56524 whole entry): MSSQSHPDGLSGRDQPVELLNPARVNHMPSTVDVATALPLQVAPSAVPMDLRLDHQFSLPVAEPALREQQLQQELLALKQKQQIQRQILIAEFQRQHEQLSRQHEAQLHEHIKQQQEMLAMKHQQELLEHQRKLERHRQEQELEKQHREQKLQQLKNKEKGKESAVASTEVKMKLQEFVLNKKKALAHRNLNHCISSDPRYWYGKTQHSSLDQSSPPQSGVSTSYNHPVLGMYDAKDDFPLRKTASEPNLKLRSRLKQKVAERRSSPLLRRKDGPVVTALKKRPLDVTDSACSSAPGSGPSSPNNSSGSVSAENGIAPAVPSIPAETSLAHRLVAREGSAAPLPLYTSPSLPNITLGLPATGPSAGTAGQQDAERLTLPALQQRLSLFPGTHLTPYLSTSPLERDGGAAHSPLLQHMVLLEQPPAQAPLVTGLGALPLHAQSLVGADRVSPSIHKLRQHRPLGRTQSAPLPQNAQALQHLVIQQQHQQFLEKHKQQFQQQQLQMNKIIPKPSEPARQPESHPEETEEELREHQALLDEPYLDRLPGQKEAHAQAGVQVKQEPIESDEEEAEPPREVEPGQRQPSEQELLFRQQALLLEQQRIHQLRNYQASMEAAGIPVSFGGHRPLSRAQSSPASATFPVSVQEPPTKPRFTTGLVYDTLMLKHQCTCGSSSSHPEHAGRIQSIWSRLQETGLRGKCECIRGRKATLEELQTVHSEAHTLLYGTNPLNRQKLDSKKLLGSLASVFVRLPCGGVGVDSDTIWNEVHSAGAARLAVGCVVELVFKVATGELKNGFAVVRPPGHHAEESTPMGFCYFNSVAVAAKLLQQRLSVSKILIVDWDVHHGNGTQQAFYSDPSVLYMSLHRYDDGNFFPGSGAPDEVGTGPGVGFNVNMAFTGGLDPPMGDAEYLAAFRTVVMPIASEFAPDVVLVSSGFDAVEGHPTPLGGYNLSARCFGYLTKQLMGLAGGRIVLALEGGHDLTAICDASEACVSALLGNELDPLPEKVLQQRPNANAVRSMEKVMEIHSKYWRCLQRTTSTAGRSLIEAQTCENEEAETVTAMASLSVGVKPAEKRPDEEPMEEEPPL

T1 sequence (Q13547 whole entry): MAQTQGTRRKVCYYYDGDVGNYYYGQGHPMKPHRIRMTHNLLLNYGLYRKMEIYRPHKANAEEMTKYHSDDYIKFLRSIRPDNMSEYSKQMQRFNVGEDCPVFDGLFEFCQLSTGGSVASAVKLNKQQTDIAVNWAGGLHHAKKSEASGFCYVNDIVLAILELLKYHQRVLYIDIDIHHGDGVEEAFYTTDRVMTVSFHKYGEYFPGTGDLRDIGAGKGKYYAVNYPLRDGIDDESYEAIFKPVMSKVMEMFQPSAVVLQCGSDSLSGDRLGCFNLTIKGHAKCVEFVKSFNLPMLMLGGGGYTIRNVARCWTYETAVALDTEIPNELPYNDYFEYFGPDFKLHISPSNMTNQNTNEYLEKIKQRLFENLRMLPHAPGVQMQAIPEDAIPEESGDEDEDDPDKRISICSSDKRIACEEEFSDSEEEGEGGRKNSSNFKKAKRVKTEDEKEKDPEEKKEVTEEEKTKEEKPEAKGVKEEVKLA
T2 sequence (Q92769 whole entry): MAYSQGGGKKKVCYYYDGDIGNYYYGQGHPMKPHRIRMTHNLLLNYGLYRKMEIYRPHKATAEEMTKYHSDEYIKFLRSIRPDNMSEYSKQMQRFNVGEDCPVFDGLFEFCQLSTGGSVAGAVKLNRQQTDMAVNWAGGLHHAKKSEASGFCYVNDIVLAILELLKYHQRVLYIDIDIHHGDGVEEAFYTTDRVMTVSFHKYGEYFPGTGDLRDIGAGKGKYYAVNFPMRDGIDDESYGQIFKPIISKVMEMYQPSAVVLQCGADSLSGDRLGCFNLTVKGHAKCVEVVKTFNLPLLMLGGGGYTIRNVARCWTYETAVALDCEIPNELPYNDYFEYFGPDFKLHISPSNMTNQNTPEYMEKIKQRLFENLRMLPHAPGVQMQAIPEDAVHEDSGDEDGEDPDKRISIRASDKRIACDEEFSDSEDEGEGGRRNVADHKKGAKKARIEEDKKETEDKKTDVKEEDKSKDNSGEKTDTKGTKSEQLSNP
Sequence of Histone deacetylase 3 (O15379 whole entry): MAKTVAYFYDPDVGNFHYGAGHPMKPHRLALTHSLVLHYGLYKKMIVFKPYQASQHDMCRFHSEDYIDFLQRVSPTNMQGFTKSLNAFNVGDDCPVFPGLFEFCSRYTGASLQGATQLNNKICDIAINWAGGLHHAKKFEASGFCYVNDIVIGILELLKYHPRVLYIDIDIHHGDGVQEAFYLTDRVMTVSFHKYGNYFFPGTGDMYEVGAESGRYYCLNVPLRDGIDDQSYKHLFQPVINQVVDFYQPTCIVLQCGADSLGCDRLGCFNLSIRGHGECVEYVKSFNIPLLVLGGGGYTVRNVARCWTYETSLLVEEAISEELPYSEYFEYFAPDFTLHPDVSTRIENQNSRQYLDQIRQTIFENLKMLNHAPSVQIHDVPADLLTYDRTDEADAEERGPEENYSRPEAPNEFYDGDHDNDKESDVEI

In the case of `O=C(O)CCCc1ccccc1` [SODIUM PHENYLBUTYRATE], the IC50 at Histone deacetylase 1 [1] is 162 µM.

As to `CN1CCc2c(c3ccccc3n2Cc2ccc(C(=O)NO)cc2)C1` [TUBASTATIN A], the IC50 in assay [2] was > 30 µM.

Consider `CCCC(=O)O` [BUTYRIC ACID], for which the results for the half-inhibitory concentration (IC50) on Histone deacetylase 1 [3], at Histone deacetylase 2 [4] and at Histone deacetylase 7 were 300 µM, 400 µM and 300 µM, respectively.

In the case of `C[C@@H]1CN(Cc2ccc(C(=O)NO)cc2)C[C@H](C)N1Cc1cccc(Cl)c1`, the IC50 against Histone deacetylase 1 [3] came out at 11.4 µM; in [5] it was 0.041 µM.

On to `CC(C)(C)OC(=O)Nc1cccc(C(=O)/C=C/c2ccc(/C=C/C(=O)NO)cc2)c1`, for which the IC50 against Histone deacetylase 2 [4] amounted to 2.1 µM; in [5], 0.011 µM; against Histone deacetylase 3, 10.8 µM; against Histone deacetylase 8 it was 1.2 µM.

As for `Oc1ccc(/C=C/c2cc(O)cc(O)c2)cc1`, the inhibition in [6] is 32%; at Histone deacetylase 1 [7], 39%; on Histone deacetylase 2 [8], 21%; in assay [9], 23%.

By IC50 is commonly meant the concentration needed to halve the response being measured. The inhibition is the relative decrease from the control value, in per cent. Low readings indicate a response near the control, high ones a response far below the control.
